Legend:
Pseudomonas sp. = assay: Agar diffusion growth inhibition zone, Pseudomonas sp.; type: cell-based, Pseudomonas species; settings: for zone of inhibition: Pseudomonas sp., 6 mm = no activity
Protocol: (§7) Agar well diffusion method is widely used to evaluate the antimicrobial activity of plants or other synthetic products. The suspension (microbial inoculum) was used to inoculate into Muller Hinton Agar Petri plates by lawn culture. Well (diameter 6 mm) were punched in the agar by sterile borer and filled with 50 μl of dissolved extracts. Plates were incubated in incubator at 37° C. for 24 hours and measured the growth inhibition zone diameters in mm compared with that of control (DMSO) showing no growth. The antimicrobial agent diffuses in the agar medium and inhibits the growth of the microbial strain tested (Valgas et al., (2016) Methods for in vitro evaluating antimicrobial activity: A review. Journal of Pharmaceutical Analysis. 6(2):71-9).
(§8) Similar to the procedure used in Agar well diffusion method, the suspension (microbial inoculum) was used to inoculate into Muller Hinton Agar Petri plates by lawn culture. Then, filter paper discs (about 6 mm in diameter), containing the test compound at a desired concentration, were placed on the agar surface. The Petri dishes were incubated under suitable incubation conditions. Generally, antimicrobial agent diffuses into the agar and inhibits germination and growth of the test microorganism and then the diameters of inhibition growth zones are measured (Valgas et al., (2007) Screening methods to determine antibacterial activity of natural products. Brazilian Journal of Microbiology. 38:369-80; Balouiri M et al., (2016) Methods for in vitro evaluating antimicrobial activity: A review. Journal of Pharmaceutical Analysis. 6(2):71-9).

Proteus sp. = assay: Agar diffusion growth inhibition zone, Proteus sp.; type: cell-based, Proteus species
Protocol: (§1) Among the bacterial agents tested Gram positive and Gram negative bacterial groups represented by Staphylococcus aureus and Enterococcus species and pathogenic members of Enterobacteriaceae, Vibronaceae, Aeromonadaceae, Pseudomonadaceae were tested. Freshly sub-cultured bacterial strains were inoculated into peptone water and incubated for 4 hours at 37° C. and adjusted to a turbidity of 0.5 (Gram Negative Bacilli), 1 (Gram Positive Cocci) and 4 (Pus cells, GNB, & few Budding yeast cells) Mc Farland standards (10^8 CFU/ml) respectively.
(§2) The different bioactive compounds and their derivatives were dissolved and diluted with solvents (DMSO), number of subsequent dilutions was performed to obtain different concentrations of the bioactive compounds and their derivatives. (Working Concentrations).
(§3) Agar well diffusion method is widely used to evaluate the antimicrobial activity of plants or other synthetic products. The suspension (microbial inoculum) was used to inoculate into Muller Hinton Agar Petri plates by lawn culture. Well (diameter 6 mm) were punched in the agar by sterile borer and filled with 50 μl of dissolved extracts. Plates were incubated in incubator at 37° C. for 24 hours and measured the growth inhibition zone diameters in mm compared with that of control (DMSO) showing no growth.
(§4) The bioactive compounds were tested with desired concentrations in 6 mm filter paper discs (Whatman, no. 3) were impregnated with 10 μL of each of the different dilutions. The discs were allowed to remain at room temperature until complete diluent evaporation and kept under refrigeration until ready to be used. 10 μL of diluents used to products were used as control. Tests were performed by Agar disk-diffusion testing method, which is the official method used in many clinical microbiology laboratories for routine antimicrobial susceptibility testing.
(§5) Similar to the procedure used in Agar well diffusion method, the suspension (microbial inoculum) was used to inoculate into Muller Hinton Agar Petri plates by lawn culture. Then, filter paper discs (about 6 mm in diameter), containing the test compound at a desired concentration, were placed on the agar surface. The Petri dishes were incubated under suitable incubation conditions.
(§6) Bioactive compounds showing zone of inhibition beyond the size of 6 mm are considered to be having an anti-microbial activity.

Vibrio cholera = assay: Agar diffusion growth inhibition zone, Vibrio cholera; type: cell-based, Vibrio cholerae; settings: for zone of inhibition: Vibrio cholera, 6 mm = no activity
Salmonella typhimurium = assay: Agar diffusion growth inhibition zone, Salmonella typhimurium; type: cell-based; settings: 6 mm = no activity
Protocol: as §1, §2, §3, §4, §5, §6

Citrobacter sp. = assay: Agar diffusion growth inhibition zone, Citrobacter sp.; type: cell-based, Citrobacter species; settings: 6 mm = no activity
Protocol: as §1, §2, §3, §4, §5, §6

EAEC = assay: Agar diffusion growth inhibition zone, EAEC; type: cell-based, Enteroaggregative E. coli
Protocol: as §1, §2, §3, §4, §5, §6

E. coli ATCC 25922 = assay: Agar diffusion growth inhibition zone, E. coli ATCC 25922; type: cell-based; settings: 6 mm = no activity
Protocol: as §1, §2, §3, §4, §5, §6

Aeromonas sp. = assay: Agar diffusion growth inhibition zone, Aeromonas sp.; type: cell-based, Aeromonas species
Protocol: as §1, §2, §3, §4, §5, §6

Enterococcus sp. = assay: Agar diffusion growth inhibition zone, Enterococcus sp.; type: cell-based, Enterococcus species; settings: 6 mm = no activity
Protocol: as §1, §2, §3, §4, §5, §6

ETEC = assay: Agar diffusion growth inhibition zone, ETEC; type: cell-based, Enterotoxigenic E. coli; settings: for inhibition of growth / zone of inhibition: ETEC; for zone of inhibition: 6 mm = no activity
Protocol: as §7, §8

Candida abicans = assay: Agar diffusion growth inhibition zone, Candida abicans; type: cell-based, Candida albicans; settings: 6 mm = no activity
Protocol: as §1, §2, §3, §4, §5, §6

Pleisiomonas sp. = assay: Agar diffusion growth inhibition zone, Pleisiomonas sp.; type: cell-based, Pleisiomonas species
Protocol: as §1, §2, §3, §4, §5, §6

Klebsiella sp. = assay: Agar diffusion growth inhibition zone, Klebsiella sp.; type: cell-based, Klebsiella species; settings: 6 mm = no activity
Protocol: as §1, §2, §3, §4, §5, §6

Shigella sp. = assay: Agar diffusion growth inhibition zone, Shigella sp.; type: cell-based, Shigella species; settings: for zone of inhibition: Shigella sp., 6 mm = no activity
Protocol: as §7, §8

S. aureus = assay: Agar diffusion growth inhibition zone, S. aureus; type: cell-based, Staphylococcus aureus
Protocol: as §1, §2, §3, §4, §5, §6

[1] = Proteus sp., 150 mg, 6 mm = no activity
[2] = Aeromonas sp., 100 mg, 6 mm = no activity
[3] = Aeromonas sp., 150 mg, 6 mm = no activity
[4] = Pleisiomonas sp., 100 mg, 6 mm = no activity
[5] = Pleisiomonas sp., 150 mg, 6 mm = no activity

Demethoxycurcumin [compound 2]
significantly inhibited the growth: inhibition of growth (ETEC)
6 mm: zone of inhibition (Pseudomonas sp.; 100 mg) | zone of inhibition (Pseudomonas sp.; 150 mg) | zone of inhibition (Vibrio cholera; 100 mg) | zone of inhibition (Vibrio cholera; 150 mg) | zone of inhibition (Salmonella typhimurium; 100 mg) | zone of inhibition (Salmonella typhimurium; 150 mg) | zone of inhibition (Citrobacter sp.; 100 mg) | zone of inhibition (Citrobacter sp.; 150 mg) | zone of inhibition (EAEC; 100 mg, 6 mm = no activity) | zone of inhibition (EAEC; 150 mg, 6 mm = no activity) | zone of inhibition (E. coli ATCC 25922; 100 mg) | zone of inhibition (E. coli ATCC 25922; 150 mg) | zone of inhibition (Enterococcus sp.; 100 mg) | zone of inhibition (Enterococcus sp.; 150 mg) | zone of inhibition (Candida abicans; 100 mg) | zone of inhibition (Candida abicans; 150 mg) | zone of inhibition (Klebsiella sp.; 100 mg) | zone of inhibition (Klebsiella sp.; 150 mg) | zone of inhibition (Shigella sp.; 100 mg) | zone of inhibition (Shigella sp.; 150 mg)
9 mm: zone of inhibition (Aeromonas sp.; [2]) | zone of inhibition (Aeromonas sp.; [3])
12 mm: zone of inhibition (Proteus sp.; Proteus sp., 100 mg, 6 mm = no activity) | zone of inhibition (Proteus sp.; [1]) | zone of inhibition (Proteus sp.; Proteus species, at both concentrations of 100 mg and 150 mg) | zone of inhibition (ETEC; 100 mg) | zone of inhibition (ETEC; 150 mg)
inhibited: inhibition of growth (Pleisiomonas sp.; Plesiomonas species)
inhibited the growth: inhibition of growth (Aeromonas sp.; Aeromonas species)
11 mm: zone of inhibition (Pleisiomonas sp.; [4]) | zone of inhibition (Pleisiomonas sp.; [5]) | zone of inhibition (S. aureus; 100 mg, 6 mm = no activity) | zone of inhibition (S. aureus; 150 mg, 6 mm = no activity) | zone of inhibition (S. aureus; concentration not given)

COc1cc(/C=C/C(=O)COC(=O)/C=C/c2ccc(O)c(OC)c2)ccc1O [compound 5, Calebin-A]
inhibited: inhibition of growth (EAEC)
significantly inhibited the growth: inhibition of growth (ETEC)
6 mm: zone of inhibition at 100000 µg/disc (Pseudomonas sp.; Pseudomonas) | zone of inhibition at 150000 µg/disc (Pseudomonas sp.; Pseudomonas) | zone of inhibition at 150 mg/mL (Proteus sp.; [1]) | zone of inhibition at 100000 µg/disc (Vibrio cholera; Vibrio cholerae) | zone of inhibition at 150000 µg/disc (Vibrio cholera; Vibrio cholerae) | zone of inhibition at 100 mg/mL (Salmonella typhimurium; Salmonella enterica, 100 mg) | zone of inhibition at 150 mg/mL (Salmonella typhimurium; Salmonella enterica, 150 mg) | zone of inhibition at 100 mg/mL (Citrobacter sp.; 100 mg) | zone of inhibition at 150 mg/mL (Citrobacter sp.; 150 mg) | zone of inhibition at 100 mg/mL (E. coli ATCC 25922; Escherichia coli, ATCC25922, 100 mg) | zone of inhibition at 150 mg/mL (E. coli ATCC 25922; Escherichia coli, ATCC25922, 150 mg) | zone of inhibition at 100 mg/mL (Aeromonas sp.; [2]) | zone of inhibition at 150 mg/mL (Aeromonas sp.; [3]) | zone of inhibition at 100 mg/mL (Enterococcus sp.; 100 mg) | zone of inhibition at 150 mg/mL (Enterococcus sp.; 150 mg) | zone of inhibition at 100 mg/mL (Candida abicans; 100 mg) | zone of inhibition at 150 mg/mL (Candida abicans; 150 mg) | zone of inhibition at 100 mg/mL (Pleisiomonas sp.; [4]) | zone of inhibition at 150 mg/mL (Pleisiomonas sp.; [5]) | zone of inhibition at 100 mg/mL (Klebsiella sp.; 100 mg) | zone of inhibition at 150 mg/mL (Klebsiella sp.; 150 mg) | zone of inhibition at 100000 µg/disc (Shigella sp.; Shigella) | zone of inhibition at 150000 µg/disc (Shigella sp.; Shigella) | zone of inhibition at 100 mg/mL (S. aureus; Staphylococcus aureus, 100 mg, 6 mm = no activity) | zone of inhibition at 150 mg/mL (S. aureus; Staphylococcus aureus, 150 mg, 6 mm = no activity)
11 mm: zone of inhibition at 100000 µg/disc (ETEC; Escherichia coli) | zone of inhibition at 150000 µg/disc (ETEC; Escherichia coli)
7 mm: zone of inhibition at 100 mg/mL (EAEC; Escherichia coli, 100 mg, 6 mm = no activity) | zone of inhibition at 150 mg/mL (EAEC; Escherichia coli, 150 mg, 6 mm = no activity)

From patent publication US20190365843A1, “Antimicrobial Activity of Bioactive Compounds and Their Derivatives” (priority 2018, published 2019)
